Assay results as given in PMC4409337, “Immucillins Impair Leishmania (L.) infantum chagasi and Leishmania (L.) amazonensis Multiplication In Vitro” (PLoS ONE, 2015).
Like-named read-outs stand apart in the source and are kept apart here.

Experiments:
NH of L. (L.) major = tested on: NH of L. (L.) major; parameters: method as in PMID 10409664; details: unit inferred; cited from earlier work
[1] = tested on: Nucleoside hydrolase NH36 of L. (L.) donovani; assay type: biochemical, Leishmania (L.) donovani; details: substrate of NH36; for k cat /K m: catalytic efficiency; for K m / k cat: 25°C, 50 mM Hepes pH 7.4
Description: (§1) BL21DE3 E.coli were transformed with the synthetic plasmid pET 28b encoding the gene of NH36 of Leishmania (L.) donovani (EMBL, Genbank and DDJB data bases, access number AY007193) with a His6tag at the C-terminal. Expression was induced with 0.5 mM IPTG and overnight incubation at 20°C. Purification of NH36 was performed on a column of Ni-NTA Superflow resin (Qiagen, USA) eluted by a stepwise imidazole gradient and monitored by SDS-polyacrylamide gel electrophoresis and protein assay. The extinction coefficient of NH36 is 21.437 mM^-1 cm^-1 at 280 nm, as calculated with the ProtParam program from ExPASy, and was used to estimate protein concentration (http://ca.expasy.org/seqanalref/). The yield of NH36 after purification was 11.87 mg per Liter of bacterial growth culture. Non-specific His-proteins with weak interactions were eluted with 50–100 mM imidazole (S1 Fig). The purified NH36 started to elute with 150 mM imidazole. We used 250 mM of imidazol in elution buffer for purification of NH36.
Steady-state kinetic rates for NH36 were determined on the substrates inosine, guanosine, adenosine, uridine and cytidine. Hypoxanthine and adenine formation were coupled to xanthine oxidase (12.9 mM^-1 cm^-1 at 293 nm and 15.2 mM^-1 cm^-1 at 305 nm, respectively), and the others were followed by direct uv absorbance changes resulting from cleavage of the N-ribosidic bond. Reaction mixtures contained 50 mM Hepes (pH 7.4), 100 mM NaCl and 5 mM of DTT. One unit, and 0.1 unit of xanthine oxidase (XOD) were used as the coupling enzyme to the adenosine and inosine assays, respectively. Spectral changes for hydrolysis of guanosine, uridine and cytidine were 5.4 mM^-1 cm^-1 at 257 nm,1.8 mM^-1 cm^-1 at 280 nm and 1.8 mM^-1 cm^-1 at 288 nm, respectively. Variable concentrations of substrate and appropriate amounts of purified NH36 were added in all assays. The hydrolysis of nucleosides to bases and ribose was followed by continuous recording of optical absorbance after addition of the enzyme, in a CARY 300 UV-visible spectrophotometer. Control rates with no enzyme addition were subtracted from initial rates. Reactions with substrates were conducted at 25°C using 1 cm path length cuvettes containing 1 mL reaction volumes. Kinetic parameters of NH36 were obtained by fitting initial rates to the Michaelis−Menten equation using GraFit 5 (Erithacus Software).

[2] = tested on: intracellular amastigotes of L. (L.) infantum chagasi; details: ref 44; read-out: IC50 against intracellular amastigotes; cited from earlier work
[3] = molecular target: T1, Nucleoside hydrolase NH36 (Leishmania donovani, UniProt Q8WQX2); experiment: Ki determination: inhibition of NH36 activity by immucillins; assay type: biochemical, Leishmania (L.) donovani; details: 10 mM inosine as substrate, 0.5 nM NH36, pH 7.4, room temperature
T1 sequence (Q8WQX2 1-314): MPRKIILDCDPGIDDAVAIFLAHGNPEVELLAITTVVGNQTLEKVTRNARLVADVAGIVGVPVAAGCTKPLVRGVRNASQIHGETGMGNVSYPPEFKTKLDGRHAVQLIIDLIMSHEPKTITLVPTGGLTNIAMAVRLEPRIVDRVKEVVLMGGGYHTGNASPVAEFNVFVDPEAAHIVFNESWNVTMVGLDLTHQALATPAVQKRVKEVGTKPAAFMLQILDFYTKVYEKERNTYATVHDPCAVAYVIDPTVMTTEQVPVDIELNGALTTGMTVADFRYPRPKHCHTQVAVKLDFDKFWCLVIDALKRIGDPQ
Description: as §1
The reaction mixtures contained 10 mM inosine as substrate, 50 mM Hepes (pH 7.4), 100 mM KCl, 5 mM DTT and 1 unit XOD. The hydrolysis of inosine to hypoxanthine and ribose was followed by continuous reading of optical absorbance at 293 nm, using variable concentrations of inhibitors in a CARY 300UV-visible spectrophotometer. Controls without enzyme and without inhibitors were included in all inhibition assays. The inhibition constant for each immucillin was obtained, using GraFit 5 (Erithacus Software), by fitting initial rates with variable inhibitor concentrations to the equation (vi/v0 = [S] / Km + [S] + Km[I] / Ki), where v i is the initial rate in the presence of the inhibitor, v 0 is the initial rate in the absence of the inhibitor, K m is the Michaelis constant for inosine, [S] and [I] are inosine and inhibitor concentrations, respectively, and Ki is the inhibition constant.

[4] = tested on: L. (L.) amazonensis promastigotes; experiment: In vitro growth of promastigotes in FBS supplemented Schneider's insect medium; assay type: cell-based, Leishmania (L.) amazonensis; details: Leishmania amazonensis; for inhibition at 500 µM: read-out: percent inhibition on L. (L.) amazonensis replication; for IC50: read-out: IC50 (CI 95%) on L. (L.) amazonensis promastigotes in vitro growth
Excerpt: The strain of Leishmania (L.) infantum chagasi MHOM/BR/1974/PP75 was obtained from the Leishmania Type Culture Collection (Fundacão Oswaldo Cruz, Rio de Janeiro, RJ, Brazil) and the strain of Leishmania (L.) amazonensis (MHOM/BR/1975/Josefa) was kindly given by Professor Rosâ[…] from Universidade Federal do Rio de Janeiro. Promastigotes were maintained by weekly transfers in screw-capped glass tubes containing Schneider's insect medium (Sigma Aldrich, MO, USA), pH 7.0, supplemented with 10% Fetal Bovine Serum (FBS) at 26°C. Stock solutions (20 mM) of immucillins IA […] prepared using Milli-Q purified water. Log phase promastigotes of L. (L.) infantum chagasi and L. […] Promastigotes were recorded in a Neubauer chamber after 24, 48, 72 and 96 hours of incubation at 26°C. […] We also assayed the possibility of reversing the inhibitory effect of IA in RPMI medium by the addition of adenosine to the culture medium. The concentration of adenosine in Schneider s insect serum supplemented medium was assessed by HPLC using a C-18 reverse-phase column as described.

[5] = tested on: L. (L.) infantum chagasi promastigotes; experiment: as above; assay type: cell-based, Leishmania (L.) infantum chagasi; details: Leishmania infantum; for inhibition at 500 µM: after 96 h of culture, read-out: percent inhibition on L. (L.) infantum chagasi promastigote growth
Excerpt: The strain of Leishmania (L.) infantum chagasi MHOM/BR/1974/PP75 was obtained from the Leishmania Type Culture Collection (Fundacão Oswaldo Cruz, Rio de Janeiro, RJ, Brazil) and the strain of Leishmania (L.) amazonensis (MHOM/BR/1975/Josefa) was kindly given by Professor Rosâ[…] from Universidade Federal do Rio de Janeiro. Promastigotes were maintained by weekly transfers in screw-capped glass tubes containing Schneider's insect medium (Sigma Aldrich, MO, USA), pH 7.0, supplemented with 10% Fetal Bovine Serum (FBS) at 26°C. […] Log phase promastigotes of L. (L.) infantum chagasi and L. […] Promastigotes were recorded in a Neubauer chamber after 24, 48, 72 and 96 hours of incubation at 26°C. […] The concentration of adenosine in Schneider s insect serum supplemented medium was assessed by HPLC using a C-18 reverse-phase column as described.

[6] = tested on: intracellular amastigotes of L. (L.) infantum chagasi; experiment: Replication of intracellular amastigotes in infected peritoneal macrophages (phagocytic index); assay type: cell-based, Leishmania (L.) infantum chagasi
Description: […] […] The amastigote growth was assessed 24 h after the last drug addition, on 200 cells in Giemsa stained coverslips and expressed as phagocytic index = percent of infected macrophages x average number of intracellular amastigotes. […] All experiments with mice were reviewed and approved by the Animal Care and Use Committee of the Instituto de Biofísica Carlos Chagas Fo.-UFRJ (CAUAP-CONCEA, Brazil, IMPPG-016) and were performed according to the guidelines of the National Institutes of Health, USA. We made all efforts in order to minimize animal suffering.

in vitro = details: female, BALB/c, mouse
Description: Alternatively, the immucillins were added at 0, 24 and 48 h and viability assessed after 72h. […] The amastigote growth was assessed 24 h after the last drug addition, on 200 cells in Giemsa stained coverslips and expressed as phagocytic index = percent of infected macrophages x average number of intracellular amastigotes. […] All experiments with mice were reviewed and approved by the Animal Care and Use Committee of the Instituto de Biofísica Carlos Chagas Fo.-UFRJ (CAUAP-CONCEA, Brazil, IMPPG-016) and were performed according to the guidelines of the National Institutes of Health, USA. We made all efforts in order to minimize animal suffering.

[7] = tested on: L. (L.) infantum chagasi promastigotes; experiment: Transmission electron microscopy of treated promastigotes; assay type: cell-based, Leishmania (L.) infantum chagasi; details: 10 μM, 72 h
Excerpt: The cells were washed with Milli Q water, dehydrated in increasing concentration of acetone and embedded in Epon (1: 1) (PolyBed 812). The ultrathin sections were obtained, contrasted with 5% uranyl acetate and lead citrate and observed under a Joel 1200 electron microscope.

[8] = single addition at 0 h, evaluated after 48 hours, 26°C, read-out: IC50 (CI 95%) on L. (L.) infantum chagasi promastigotes in vitro growth
[9] = single addition at 0 h, evaluated after 48 hours, 26°C

Ki [3] [µM]	SMILES	IC50 [2] [µM]	inhibition at 500 µM ([4]; 500 μM, after 96 h of culture) [%]	IC50 [5, 8] [µM]	inhibition at 500 µM [5] [%]	IC50 [4, 9] [µM]	also measured
	Nc1ncnc2c1ncn2[C@@H]1O[C@H](CO)[C@@H](O)[C@H]1O [Adenosine]						k cat (NH of L. (L.) major): 0.57 s⁻¹; k cat /K m [1]: 53000 M⁻¹ s⁻¹; K m [1]: 70 ± 30 µM; k cat [1]: 3.7 ± 0.1 s ^-1
	C[C@@H]1[C@H](O)[C@@H](C)/C=C/C=C/C=C/C=C/C=C/C=C/C=C/[C@H](O[C@@H]2O[C@H](C)[C@@H](O)[C@H](N)[C@@H]2O)C[C@@H]2O[C@](O)(C[C@@H](O)C[C@@H](O)[C@H](O)CC[C@@H](O)C[C@@H](O)CC(=O)O[C@H]1C)C[C@H](O)[C@H]2C(=O)O [Amphotericin]	0.04					
	CC[C@H]1OC(=O)[C@H](C)[C@@H](O[C@H]2C[C@@](C)(OC)[C@@H](O)[C@H](C)O2)[C@H](C)[C@@H](O[C@@H]2O[C@H](C)C[C@H](N(C)C)[C@H]2O)[C@](C)(O)C[C@@H](C)CN(C)[C@H](C)[C@@H](O)[C@]1(C)O [Azitromycin]	19.9					
	Nc1ccn([C@@H]2O[C@H](CO)[C@@H](O)[C@H]2O)c(=O)n1 [Cytidine]						k cat (NH of L. (L.) major): 0.36 s⁻¹; k cat /K m [1]: 9300 M⁻¹ s⁻¹; K m [1]: 1,403 ± 282 μM; k cat [1]: 13.1 ± 1.1 s ^-1
> 5	Nc1ncnc2c(CN3C[C@H](CO)[C@@H](O)C3)c[nH]c12 [DIA]		16	109	69		
> 5	Nc1nc2c(CN3C[C@H](CO)[C@@H](O)C3)c[nH]c2c(=O)[nH]1 [DIG]		67	23.7	68	40	
> 5	O=c1[nH]cnc2c(CN3C[C@H](CO)[C@@H](O)C3)c[nH]c12 [DIH]		89	1.8	89	3.4	
	Nc1nc2c(ncn2[C@@H]2O[C@H](CO)[C@@H](O)[C@H]2O)c(=O)[nH]1 [Guanosine]						k cat /K m [1]: 1200 M⁻¹ s⁻¹; K m [1]: 380 ± 153 µM; k cat [1]: 0.47 ± 0.1 s ^-1
	CCCCCCCCCCCCCCCCOP(=O)([O-])OCC[N+](C)(C)C [Miltefosine]	4.4					
	NC[C@@H]1O[C@H](O[C@H]2[C@@H](O)[C@H](O[C@@H]3[C@@H](O)[C@H](N)C[C@H](N)[C@H]3O[C@H]3O[C@H](CO)[C@@H](O)[C@H](O)[C@H]3N)O[C@@H]2CO)[C@H](N)[C@@H](O)[C@@H]1O [Paramomycin]	337					
> 5	Nc1ncnc2c(CNC(CO)CO)c[nH]c12 [SMIA]		71	349	71	157	
1.8	Nc1nc2c(CNC(CO)CO)c[nH]c2c(=O)[nH]1 [SMIG]			25.8	70	29.4	

SMILES	Ki [3] [µM]	IC50 [2] [µM]	inhibition at 500 µM ([4]; 500 μM, after 96 h of culture) [%]	IC50 [5, 8] [µM]	inhibition at 500 µM [5] [%]	IC50 [4, 9] [µM]	also measured
O=c1[nH]cnc2c([C@@H]3N[C@H](CO)[C@@H](O)[C@H]3O)c[nH]c12 [IH]	0.019						inhibition at 500 µM ([4]; 96 h): 71%; IC50 [4]: 49.7 µM; IC50 ([5]; read-out: IC50 (CI 95%) on L. (L.) infantum chagasi promastigotes in vitro growth, single addition at 0 h, evaluated after 48 hours, 26°C): 30.6 µM; IC50 ([5]; read-out: IC50 on promastigote growth, daily addition, drugs added at 0, 24 and 48 h, after 48h): 6.7 µM; IC50 ([5]; read-out: IC50 on promastigote growth, daily addition, drugs added at 0, 24 and 48 h, at 72 and 96 h): < 0.05 µM; reduction in the number of intracellular amastigotes ([6]; 10 μM added daily at 0, 24 and 48 h): 95%; EC50 ([6]; Leishmania infantum, Peritoneal macrophage, read-out: EC50 (CI 95%)): 3.69 µM; decrease of intracellular amastigote parasite load ([6]; low micromolar concentrations, single to daily protocol): 74–95%; reduction in the number of intracellular amastigotes ([6]; single 10 μM dose at 0 h, compared to untreated controls): 70%; CC50 at 48 h (in vitro): 950 µM; effect on cellular ultrastructure of promastigotes [7]: alterations and swelling of kinetoplasts
